In assay [1] the target is T1, Abl (T315I) (Homo sapiens, UniProt P00519, T315I).
T1 construct: purchased Upstate
Nature of the assay: Abl (T315I) Kinase Assay (KinaseGlo luminescent detection of residual ATP). Format: biochemical. As to conditions: Abl (T315I) IC50 (nM), Abl (T315I) (Upstate, 17 ng/well), Abltide 100 uM, ATP 500 nM, 60 minutes at 37° C. The procedure: The assay was performed similarly to the Abl kinase assay. Abl (T315I) (Upstate, 17 ng/well); Abltide substrate (100 uM) and ATP (500 nM) comprised the reaction mixture. Compound was similarly diluted, and the reaction plate was incubated for 60 minutes at 37° C.
For orientation: Kinase-Glo measures the ATP left after a reaction by luminescence.

Assay [2] addresses Abl kinase (Homo sapiens, UniProt P00519). Nature of the assay: biochemical. As to conditions: Abl IC50 (nM), Abl kinase (Invitrogen, 20 ng/well), Abltide 100 μM, ATP 500 nM, 37° C. for 60 minutes, top concentration 10 uM.

Here are results for 29 compounds from patent US20070149508A1, “Six membered heteroaromatic inhibitors targeting resistant kinase mutations” (TargeGen, Inc., priority 2005, published 2007).

Where a name gives a salt, the structure may show the parent alone. Some results are limits rather than exact numbers.

Consider `Nc1nc2cc(C(F)(F)F)cc(/C=C/c3cnc(Nc4ccc(S(=O)(=O)C5CCNCC5)cc4)nc3)c2[nH]1` [7-((E)-2-(2-(4-(piperidin-4-ylsulfonyl)phenylamino)pyrimidin-5-yl)vinyl)-5-(trifluoromethyl)-1H-benzo[d]imidazol-2-amine], for which the IC50 in assay [1] stood at 254 nM; in assay [2], 130 nM.

Turning to `O=S(=O)(CCCN1CCNCC1)c1ccc(Nc2ncc(/C=C/c3cccc4[nH]ccc34)cn2)cc1` [{5-[2-(1H-Indol-4-yl)-vinyl]-pyrimidin-2-yl}-[4-(3-piperazin-1-yl-propane-1-sulfonyl)-phenyl]-amine], the IC50 worked out at 488 nM in assay [1] and 54 nM in assay [2].

Take `O=S(=O)(c1ccc(Nc2ncc(/C=C/c3cccc4[nH]ccc34)cn2)cc1N1CCNCC1)N1CCNCC1` [5-[(E)-2-(1H-indol-4-yl)vinyl]-N-[3-piperazin-1-yl-4-(piperazin-1-ylsulfonyl)phenyl]pyrimidin-2-amine trifluoroacetic acid salt]: the values for the IC50 in assay [1] and in assay [2] were 885 nM and 84 nM, respectively.

On to `O=S(=O)(NCCO)c1ccc(Nc2ncc(/C=C/c3cccc4[nH]ncc34)cn2)cc1N1CCNCC1` [N-(2-hydroxyethyl)-4-({5-[(E)-2-(1H-indazol-4-yl)vinyl]pyrimidin-2-yl}amino)-2-piperazin-1-ylbenzenesulfonamide trifluoroacetic acid salt], for which the IC50 was 81 nM in assay [1] and 30 nM in assay [2].

Take `Nc1nc2ccc(/C=C/c3cnc(Nc4ccc(S(=O)(=O)N5CCCC(O)C5)cc4)nc3)cc2s1` (stereo not shown) [(E)-1-(4-(5-(2-(2-aminobenzo[d]thiazol-6-yl)vinyl)pyrimidin-2-ylamino)phenylsulfonyl)piperidin-3-ol]: the IC50 in assay [1] was determined as 214 nM; in assay [2], 432 nM.

Regarding `Cc1nc(Nc2ccc(S(=O)(=O)NCCN3CCCC3)cc2)ncc1/C=C/c1cccc(O)c1` [4-{5-[2-(3-Hydroxy-phenyl)-vinyl]-4-methyl-pyrimidin-2-ylamino}-N-(2-pyrrolidin-1-yl-ethyl)-benzenesulfonamide], the figures for the IC50 in assay [1] and in assay [2] were 436 nM and 39 nM, respectively.

On to `O=S(=O)(c1ccc(Nc2ncc(/C=C/c3ccc(F)c(O)c3)cn2)cc1)C1CCNCC1` [2-Fluoro-5-(2-{2-[4-(piperidine-4-sulfonyl)-phenylamino]-pyrimidin-5-yl}-vinyl)-phenol], for which the figures for the IC50 in assay [1] and in assay [2] were 213 nM and 12 nM, respectively.

Consider `NC1CCN(S(=O)(=O)c2ccc(Nc3ncc(/C=C/c4cccc5[nH]ncc45)cn3)cc2)CC1` [N-{4-[(4-aminopiperidin-1-yl)sulfonyl]phenyl}-5-[(E)-2-(1H-indazol-4-yl)vinyl]pyrimidin-2-amine], for which the IC50 was determined as 173 nM in assay [1] and 5.1 nM in assay [2].

In the case of `O=S(=O)(c1ccc(Nc2ncc(/C=C/c3n[nH]c4ccccc34)cn2)cc1)C1CCNCC1` [5-((E)-2-(1H-indazol-3-yl)vinyl)-N-(4-(piperidin-4-ylsulfonyl)phenyl)pyrimidin-2-amine Hydrochloride], the half-inhibitory concentration (IC50) in assay [1] was found to be 202 nM; in assay [2] it was 191 nM.

Take `Nc1nc2ccc(/C=C/c3cnc(Nc4ccc(S(=O)(=O)CCCN5CCCC5)cc4)nc3)cc2s1` [6-{(E)-2-[2-({4-[(3-pyrrolidin-1-ylpropyl)sulfonyl]phenyl}amino)pyrimidin-5-yl]vinyl}-1,3-benzothiazol-2-amine trifluoroacetic acid salt]: the results for the IC50 in assay [1] and in assay [2] were 173 nM and 81 nM, respectively.

For `O=S(=O)(c1ccc(Nc2ncc(/C=C/c3cc(C(F)(F)F)cc4[nH]nnc34)cn2)cc1)C1CCNCC1` [5-((E)-2-(6-(trifluoromethyl)-1H-benzo[d][1,2,3]triazol-4-yl)vinyl)-N-(4-(piperidin-4-ylsulfonyl)phenyl)pyrimidin-2-amine], the 50% inhibitory concentration (IC50) in assay [1] stood at 70 nM; in assay [2], 130 nM.

For the compound `O=S(=O)(c1ccc(Nc2ncc(/C=C/c3cccc4[nH]ccc34)cn2)cc1)N1CCNCC1` [5-[(E)-2-(1H-indol-4-yl)vinyl]-N-{4-(piperazin-1-ylsulfonyl)phenyl]pyrimidin-2-amine], the figures for the IC50 in assay [1] and in assay [2] were 450 nM and 22 nM, respectively.

As to `O=S(=O)(c1ccc(Nc2ncc(/C=C/c3cc(C(F)(F)F)cc4[nH]cnc34)cn2)cc1)C1CCNCC1` [5-((E)-2-(6-(trifluoromethyl)-1H-benzo[d]imidazol-4-yl)vinyl)-N-(4-(piperidin-4-ylsulfonyl)phenyl)pyrimidin-2-amine.], the IC50 is 666 nM in assay [1] and 245 nM in assay [2].

Turning to `Nc1cccc(/C=C/c2cnc(Nc3ccc(S(=O)(=O)C4CCNCC4)cc3)nc2)c1` [15-(3-aminostyryl)-N-(4-(piperidin-4-ylsulfonyl)phenyl)pyrimidin-2-amine Hydrochloride], the concentration for half-maximal inhibition (IC50) in assay [1] amounted to 561 nM; in assay [2] it was 31 nM.

For `O=S(=O)(NC1CCNCC1)c1ccc(Nc2ncc(/C=C/c3cccc4[nH]ncc34)cn2)cc1` [4-{5-[2-(1H-Indazol-4-yl)-vinyl]-pyrimidin-2-ylamino}-N-piperidin-4-yl-benzenesulfonamide hydrochloride], the IC50 in assay [1] came to 176 nM; in assay [2] it was 6.2 nM.

Consider `C=Cc1cnc(Nc2ccc(S(=O)(=O)C3CCN(C)CC3)cc2)nc1` [N-(4-(1-methylpiperidin-4-ylsulfonyl)phenyl)-5-vinylpyrimidin-2-amine], for which the IC50 in assay [1] worked out at 1570 nM; in assay [2], 4250 nM.

As to `CN(C1CCNCC1)S(=O)(=O)c1ccc(Nc2ncc(/C=C/c3ccc4nc(N)sc4c3)cn2)cc1` [4-{5-[2-(2-Amino-benzothiazol-6-yl)-vinyl]pyrimidin-2-ylamino}-N-methyl-N-piperidin-4-yl-benzensulfonamide Hydrochloride], the IC50 in assay [1] was 45 nM; in assay [2], 93 nM.

For `NS(=O)(=O)c1cccc(/C=C/c2cnc(Nc3ccc(S(=O)(=O)C4CCNCC4)cc3)nc2)c1` [3-(2-{2-[4-(Piperidine-4-sulfonyl)-phenylamino]-pyrimidin-5-yl}-vinyl)-benzenesulfonamide Hydrochloride], the IC50 in assay [1] amounted to 2070 nM; in assay [2] it was 198 nM.

`O=S(=O)(c1ccc(Nc2ncc(/C=C/c3cc(O)ccc3Cl)cn2)cc1)C1CCNCC1` [4-Chloro-3-(2-{2-[4-(piperidine-4-sulfonyl)-phenylamino]-pyrimidin-5-yl}-vinyl)-phenol]: the figures for the IC50 in assay [1] and in assay [2] were 96 nM and 3.8 nM, respectively.

Consider `O=C(Nc1cccc(/C=C/c2cnc(Nc3cccnc3)nc2)c1)c1cccc(C(F)(F)F)c1` [N-(3-{2-[2-(Pyridin-3-ylamino)-pyrimidin-5-yl]-vinyl}-phenyl)-3-trifluoromethyl-benzamide], for which the IC50 in assay [1] was above 10000 nM; in assay [2] it was 148 nM.

In the case of `Oc1cccc(/C=C/c2cnc(Nc3ccc(OCCN4CCCC4)cc3)nc2)c1` [3-((E)-2-(2-(4-(2-(pyrrolidin-1-yl)ethoxy)phenylamino)pyrimidin-5-yl)vinyl)phenol trifluoroacetate], the IC50 stood at 297 nM in assay [1] and 30 nM in assay [2].

On to `Nc1cc(C(F)(F)F)cc(/C=C/c2cnc(Nc3ccc(S(=O)(=O)C4CCNCC4)cc3)nc2)c1N` [3-((E)-2-(2-(4-(piperidin-4-ylsulfonyl)phenylamino)pyrimidin-5-yl)vinyl)-5-(trifluoromethyl)benzene 1,2-diamine.], for which the IC50 in assay [1] came to 522 nM; in assay [2] it was 210 nM.

As to `Nc1nc2ccc(/C=C/c3cnc(Nc4ccc(S(=O)(=O)N5CCCNCC5)cc4F)nc3)cc2s1` [(E)-6-(2-(2-(4-(1,4-diazepan-1-ylsulfonyl)-2-fluorophenylamino)pyrimidin-5-yl)vinyl)benzo[d]thiazol-2-amine hydrochloride], the IC50 in assay [1] is 6980 nM; in assay [2], 10800 nM.

For `Nc1nc2ccc(/C=C/c3cnc(Nc4ccc(S(=O)(=O)N5CCC(O)CC5)cc4)nc3)cc2s1` [(E)-1-(4-(5-(2-(2-aminobenzo[d]thiazol-6-yl)vinyl)pyrimidin-2-ylamino)phenylsulfonyl)piperidin-4-ol], the results for the IC50 in assay [1] and in assay [2] were 317 nM and 922 nM, respectively.

For `O=S(=O)(c1ccc(Nc2ncc(/C=C/c3cccc(O)c3)cn2)cc1)N1CCC(CO)CC1` [3-(2-{2-[4-(4-Hydroxymethyl-piperidine-1-sulfonyl)-phenylamino]-pyrimidin-5-yl}-vinyl)-phenol], the IC50 amounted to 225 nM in assay [1] and 22 nM in assay [2].

For the compound `Nc1nc2ccc(/C=C/c3cnc(Nc4ccc(S(=O)(=O)C5CCCNCC5)cc4)nc3)cc2s1` (stereo not shown) [6-(2-{2-[4-(Azepane-4-sulfonyl)-phenylamino]-pyrimidin-5-yl}-vinyl)-benzothiazol-2-ylamine], the IC50 came to 14 nM in assay [1] and 27 nM in assay [2].

Consider `NCC(=O)N1CCC(S(=O)(=O)c2ccc(Nc3ncc(/C=C/c4cccc5[nH]ccc45)cn3)cc2)CC1` [1-(4-(4-(5-((E)-2-(1H-indol-4-yl)vinyl)pyrimidin-2-ylamino)phenylsulfonyl)piperidin-1-yl)-2-aminoethanone hydrochloride], for which the IC50 in assay [1] amounted to 700 nM; in assay [2] it was 66 nM.

For `O=S(=O)(c1ccc(Nc2ncc(/C=C/c3cccc(O)c3)cn2)cc1)N1CCNCC1` [3-(2-{2-[4-(Piperazine-1-sulfonyl)-phenylamino]-pyrimidin-5-yl}-vinyl)-phenol], the IC50 in assay [1] stood at 37 nM; in assay [2] it was 4.1 nM.

Consider `Nc1nc2ccc(/C=C/c3cnc(Nc4ccc(S(=O)(=O)NC5CCCNC5)cc4)nc3)cc2s1` (stereo not shown) [4-{5-[2-(2-Aminobenzothiazol-6-yl)-vinyl]-pyrimidin-2-ylamino}-N-piperidin-3-yl-benzenesulfonamide Hydrochloride], for which the results for the IC50 in assay [1] and in assay [2] were 898 nM and 1440 nM, respectively.

What is called IC50 is the concentration that inhibits the measured activity by half. Read a low IC50 as greater potency.
